How the values were obtained:
[1] = system: AMARE: Amaranthus retroflexus; experiment: Post-emergence herbicidal efficacy at 80 g/ha, AMARE; assay type: in vivo; details: visual rating about 3 weeks after treatment vs untreated controls
Method in brief: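 Activity is a visual score relative to untreated plants, taken about 3 weeks after treatment, where 100% means plant death and 0% means no difference from control. Weeds in sandy loam were sprayed at the one-leaf stage with an aqueous WP or EC preparation carrying 0.5% additive at 600 l/ha.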

POLCO = experiment: Post-emergence herbicidal efficacy at 80 g/ha, POLCO; assay type: in vivo, Polygonum convolvulus; details: visual rating about 3 weeks after treatment vs untreated controls
Method: (§1) Seeds of monocotyledonous and dicotyledonous weeds and crop plants were placed in sandy loam in plastic or organic planting pots, covered with soil and cultivated in a greenhouse under controlled growth conditions. 2 to 3 weeks after sowing, the test plants were treated at the one-leaf stage. The compounds of the invention, formulated in the form of wettable powders (WP) or as emulsion concentrates (EC), were then sprayed onto the green parts of the plants as aqueous suspension or emulsion with addition of 0.5% additive at a water application rate of 600 l/ha (converted). After the test plants had been kept in the greenhouse under optimum growth conditions for about 3 weeks, the activity of the preparations was rated visually in comparison to untreated controls. For example, 100% activity=the plants have died, 0% activity=like control plants. Tables B1 to B10 below show the effects of selected compounds of the general formula (I) according to Table 1 on various harmful plants and an application rate corresponding to 80 g/ha, which were obtained by the experimental procedure mentioned above.

[2] = system: AMARE: Amaranthus retroflexus; experiment: Pre-emergence herbicide efficacy at 80 g/ha, AMARE; assay type: in vivo; details: scored visually after about 3 weeks
Method in brief: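 Percent activity (0% = as controls, 100% = plants dead) was read visually around 3 weeks post-treatment. Treatment: covering soil of sown pots sprayed with compound suspension or emulsion, 0.5% additive, water rate equal to 600 l/ha; pots then held in greenhouse.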

VERPE: Veronica persica [3] = experiment: Pre-emergence herbicide efficacy at 80 g/ha, VERPE; assay type: in vivo; details: scored visually after about 3 weeks
From the text: (§2) Seeds of monocotyledonous and dicotyledonous weed plants and crop plants were placed in plastic or organic planting pots and covered with soil. The compounds of the invention, formulated in the form of wettable powders (WP) or as emulsion concentrates (EC), were then applied to the surface of the covering soil as aqueous suspension or emulsion with addition of 0.5% additive at a water application rate equivalent to 600 l/ha. After the treatment, the pots were placed in a greenhouse and kept under good growth conditions for the test plants. After about 3 weeks, the efficacy of the preparations was scored visually in comparison with untreated controls as percentages. For example, 100% activity=the plants have died, 0% activity=like control plants. Tables D1 to D12 below show the effects of selected compounds of the general formula (I) according to Table 1 on various harmful plants and an application rate corresponding to 80 g/ha, which were obtained by the experimental procedure mentioned above.

VERPE: Veronica persica [4] = experiment: Post-emergence herbicidal efficacy at 80 g/ha, VERPE; assay type: in vivo; details: visual rating about 3 weeks after treatment vs untreated controls
Method: as §1

[5] = system: DIGSA: Digitaria sanguinalis; experiment: Pre-emergence herbicide efficacy at 1280 g/ha, DIGSA; assay type: in vivo; details: visual scoring after about 3 weeks vs untreated controls
Method in brief: (§3)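 Compound applied pre-emergence in WP or EC form to the covering soil over sown seeds, in aqueous spray with 0.5% additive (600 L/ha water). After greenhouse culture for about 3 weeks, damage is rated visually from 0% (as control) to 100% (plants dead).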

[6] = system: ABUTH: Abutilon theophrasti; experiment: Post-emergence herbicidal efficacy at 1280 g/ha, ABUTH; assay type: in vivo; details: rated visually after about 3 weeks vs untreated controls, 100% = plants have died, 0% = like control plants
Method in brief: (§4)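 Visual damage rating was made roughly 3 weeks after treatment, relative to untreated plants, on a scale where 0% means no effect and 100% means plants died. Foliar application was at the one-leaf stage as an aqueous WP/EC spray with 0.5% additive at 600 L/ha water, on greenhouse-grown pot plants.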

[7] = system: AMARE: Amaranthus retroflexus; experiment: Post-emergence herbicidal efficacy at 1280 g/ha, AMARE; assay type: in vivo; details: rated visually after about 3 weeks vs untreated controls, 100% = plants have died, 0% = like control plants
Method in brief: as §4

SETVI: Setaria viridis [8] = experiment: Pre-emergence herbicide efficacy at 1280 g/ha, SETVI; assay type: in vivo; details: visual scoring vs untreated controls
Method in brief: as §3

[9] = system: ECHCG: Echinochloa crus-galli; experiment: Post-emergence herbicidal efficacy at 1280 g/ha, ECHCG; assay type: in vivo; details: rated visually after about 3 weeks vs untreated controls, 100% = plants have died, 0% = like control plants
Method in brief: as §4

STEME: Stellaria media [10] = experiment: Post-emergence herbicidal efficacy at 1280 g/ha, STEME; assay type: in vivo; details: visual rating about 3 weeks after treatment vs untreated controls
Method in brief: as §4

[11] = system: ECHCG: Echinochloa crus-galli; experiment: Pre-emergence herbicide efficacy at 1280 g/ha, ECHCG; assay type: in vivo; details: visual scoring after about 3 weeks vs untreated controls
Method in brief: as §3

POAAN: Poa annua [12] = experiment: Pre-emergence herbicide efficacy at 1280 g/ha, POAAN; assay type: in vivo; details: visual scoring after about 3 weeks vs untreated controls
Method in brief: as §3

SETVI: Setaria viridis [13] = experiment: Post-emergence herbicidal efficacy at 1280 g/ha, SETVI; assay type: in vivo; details: visual rating about 3 weeks after treatment vs untreated controls
Method in brief: as §4

VERPE: Veronica persica [14] = experiment: Pre-emergence herbicide efficacy at 1280 g/ha, VERPE; assay type: in vivo; details: visual scoring vs untreated controls
Method in brief: as §3

[15] = system: DIGSA: Digitaria sanguinalis; experiment: Post-emergence herbicidal efficacy at 1280 g/ha, DIGSA; assay type: in vivo; details: rated visually after about 3 weeks vs untreated controls, 100% = plants have died, 0% = like control plants
Method in brief: as §4

[16] = system: AMARE: Amaranthus retroflexus; experiment: Pre-emergence herbicide efficacy at 1280 g/ha, AMARE; assay type: in vivo; details: visual scoring after about 3 weeks vs untreated controls
Method in brief: as §3

STEME: Stellaria media [17] = experiment: Pre-emergence herbicide efficacy at 1280 g/ha, STEME; assay type: in vivo; details: visual scoring vs untreated controls
Method in brief: as §3

[18] = system: ABUTH: Abutilon theophrasti; experiment: Pre-emergence herbicide efficacy at 1280 g/ha, ABUTH; assay type: in vivo; details: visual scoring after about 3 weeks vs untreated controls
Method in brief: as §3

KCHSC: Kochia scoparia [19] = experiment: Post-emergence herbicidal efficacy at 1280 g/ha, KCHSC; assay type: in vivo; details: visual rating about 3 weeks after treatment vs untreated controls
Method in brief: as §4

POAAN: Poa annua [20] = experiment: Post-emergence herbicidal efficacy at 1280 g/ha, POAAN; assay type: in vivo; details: visual rating about 3 weeks after treatment vs untreated controls
Method in brief: as §4

[21] = system: MATIN: Matricaria inodora; experiment: Pre-emergence herbicide efficacy at 1280 g/ha, MATIN; assay type: in vivo; details: visual scoring after about 3 weeks vs untreated controls
Method in brief: as §3

KCHSC: Kochia scoparia [22] = experiment: Pre-emergence herbicide efficacy at 1280 g/ha, KCHSC; assay type: in vivo; details: visual scoring after about 3 weeks vs untreated controls
Method in brief: as §3

[23] = system: ALOMY: Alopecurus myosuroides; experiment: Post-emergence herbicidal efficacy at 1280 g/ha, ALOMY; assay type: in vivo; details: rated visually after about 3 weeks vs untreated controls, 100% = plants have died, 0% = like control plants
Method: (§5) Seeds of mono- and dicotyledonous weed plants were placed in plastic pots in sandy loam soil (doubly sown with in each case one species of mono- or dicotyledonous weed plants per pot), covered with soil and cultivated in a greenhouse under controlled growth conditions. 2 to 3 weeks after sowing, the test plants were treated at the one-leaf stage. The compounds of the invention, formulated in the form of wettable powders (WP) or as emulsion concentrates (EC), were applied to the green parts of the plants as aqueous suspension or emulsion with addition of 0.5% additive at a water application rate equivalent to 600 litres per hectare. After the test plants had been kept in the greenhouse under optimum growth conditions for about 3 weeks, the activity of the preparations was rated visually in comparison to untreated controls. For example, 100% activity=the plants have died, 0% activity=like control plants. Tables A1 to A12 below show the effects of selected compounds of the general formula (I) according to Table 1 on various harmful plants and at an application rate corresponding to 1280 g/ha, which were obtained by the trial procedure specified above.

VERPE: Veronica persica [24] = experiment: Post-emergence herbicidal efficacy at 1280 g/ha, VERPE; assay type: in vivo; details: visual rating about 3 weeks after treatment vs untreated controls
Method in brief: as §4

LOLRI: Lolium rigidum = experiment: Post-emergence herbicidal efficacy at 1280 g/ha, LOLRI; assay type: in vivo; details: visual rating about 3 weeks after treatment vs untreated controls
Method: as §5

KCHSC: Kochia scoparia [25] = experiment: Pre-emergence herbicide efficacy at 80 g/ha, KCHSC; assay type: in vivo; details: scored visually after about 3 weeks
From the text: as §2

[26] = system: ALOMY: Alopecurus myosuroides; experiment: Pre-emergence herbicide efficacy at 1280 g/ha, ALOMY; assay type: in vivo; details: visual scoring after about 3 weeks vs untreated controls
From the text: Seeds of mono- and dicotyledonous weed plants were placed in plastic pots in sandy loam soil (doubly sown with one species each of mono- or dicotyledonous weed plants per pot) and covered with soil. The compounds of the invention, formulated in the form of wettable powders (WP) or as emulsion concentrates (EC), were then applied to the surface of the covering soil as aqueous suspension or emulsion with addition of 0.5% additive at a water application rate of 600 litres per hectare (converted). After the treatment, the pots were placed in a greenhouse and kept under good growth conditions for the test plants. After about 3 weeks, the efficacy of the preparations was scored visually in comparison with untreated controls as percentages. For example, 100% activity=the plants have died, 0% activity=like control plants. Tables C1 to C12 below show the effects of selected compounds of the general formula (I) according to Table 1 on various harmful plants and at an application rate corresponding to 1280 g/ha, which were obtained by the trial procedure specified above.

[27] = system: MATIN: Matricaria inodora; experiment: Post-emergence herbicidal efficacy at 1280 g/ha, MATIN; assay type: in vivo; details: visual rating about 3 weeks after treatment vs untreated controls
Method: as §5

Compound | Pre-emergence efficacy against DIGSA [5] [%] | Post-emergence efficacy at 1280 g/ha against ABUTH in % [6] [%] | Post-emergence efficacy at 1280 g/ha against AMARE in % [7] [%] | Pre-emergence efficacy against SETVI in % (SETVI: Setaria viridis [8]) [%] | Post-emergence efficacy at 1280 g/ha against ECHCG in % [9] [%] | Post-emergence efficacy against STEME (STEME: Stellaria media [10]) [%] | Pre-emergence efficacy against ECHCG [11] [%] | Pre-emergence efficacy against POAAN (POAAN: Poa annua [12]) [%] | Post-emergence efficacy against SETVI (SETVI: Setaria viridis [13]) [%] | Pre-emergence efficacy against VERPE in % (VERPE: Veronica persica [14]) [%] | Pre-emergence efficacy against AMARE [16] [%] | Pre-emergence efficacy against STEME in % (STEME: Stellaria media [17]) [%] | Pre-emergence efficacy against ABUTH [18] [%] | Post-emergence efficacy against KCHSC (KCHSC: Kochia scoparia [19]) [%] | Post-emergence efficacy against POAAN (POAAN: Poa annua [20]) [%] | Pre-emergence efficacy against KCHSC (KCHSC: Kochia scoparia [22]) [%] | Post-emergence efficacy at 1280 g/ha against ALOMY in % [23] [%] | Post-emergence efficacy against VERPE (VERPE: Veronica persica [24]) [%] | Post-emergence efficacy against LOLRI (LOLRI: Lolium rigidum) [%] | also measured
O=S(=O)(CCC(F)(F)F)Oc1c(F)cccc1Cc1ncc(Cl)cn1 [Example 1-16] |  |  |  |  |  |  |  |  |  |  |  |  |  |  |  |  |  |  |  | Post-emergence efficacy against AMARE [1]: 100%; Post-emergence efficacy against POLCO (POLCO): 80%; Pre-emergence efficacy against AMARE in % [2]: 100%; Pre-emergence efficacy against VERPE in % (VERPE: Veronica persica [3]): 90%; Post-emergence efficacy against VERPE (VERPE: Veronica persica [4]): 90%
Fc1ccc(Oc2c(F)cccc2Cc2ncc(Cl)cn2)cc1 [Example 1-35, 5-Chloro-2-[3-fluoro-2-(4-fluorophenoxy)benzyl]pyrimidine] | 90 | 100 | 100 | 90 | 100 | 100 | 90 | 90 | 90 | 100 | 100 | 100 | 90 | 100 | 90 | 100 | 90 | 100 | 90 | Post-emergence efficacy at 1280 g/ha against DIGSA in % [15]: 90%; Pre-emergence efficacy against MATIN [21]: 90%
Clc1cnc(Cc2ccccc2Oc2ncc(Cl)cn2)nc1 [Example 1-50] |  |  |  |  |  |  |  |  |  |  |  |  |  |  |  |  |  |  |  | Pre-emergence efficacy against AMARE in % [2]: 90%; Pre-emergence efficacy against KCHSC in % (KCHSC: Kochia scoparia [25]): 90%
Cc1cccc(Oc2ncc(Cl)cc2F)c1Cc1ncc(Cl)cn1 [Example 1-66] | 100 | 100 | 100 | 100 | 100 | 100 | 100 | 100 | 100 | 100 | 100 | 100 | 100 | 100 | 100 | 100 | 90 | 100 | 90 | Pre-emergence efficacy against ALOMY [26]: 90%; Post-emergence efficacy at 1280 g/ha against DIGSA in % [15]: 100%
Fc1cnc(Cc2ccccc2Oc2ncc(Cl)cn2)nc1 [Example 1-70] | 100 | 100 | 90 | 100 |  | 90 | 90 | 90 |  | 90 | 100 | 100 | 90 |  |  | 100 |  | 90 |  | Post-emergence efficacy against MATIN [27]: 90%; Pre-emergence efficacy against MATIN [21]: 100%
Fc1cc(Cl)cnc1Cc1ccccc1SCCC(F)(F)F [Example 1-110] |  | 90 | 100 |  |  | 100 |  | 90 |  |  | 100 | 100 | 90 | 90 | 100 |  |  | 100 | 90 | 
Fc1cc(Cl)cnc1Cc1ccccc1-n1cc(C(F)(F)F)cn1 [Example 1-130] |  | 100 | 100 | 90 | 90 | 100 |  | 90 | 90 | 90 | 100 |  | 100 | 100 | 100 |  | 90 | 100 |  | 

— US20250221410A1, “SUBSTITUTED 2-C-AZINES AND SALTS THEREOF, AND USE THEREOF AS HERBICIDAL ACTIVE SUBSTANCES” (BAYER AKTIENGESELLSCHAFT, priority 2022, published 2025)
